From patent US20250221963A1 (GH RESEARCH IRELAND LIMITED, priority 2022, published 2025)

Tested on: patients with treatment-resistant major depressive disorder (TRD)
Assay: Phase 1/2 clinical trial of inhaled 5-MeO-DMT in TRD
Conditions: for Patients with at least one ADR: Part A
Protocol: Patients were assigned to different groups. In the context of the present invention, the group who received a single, 12 mg dose and the group who underwent an intra-day individualized dosing regimen (IDR) that allowed for multiple, escalating doses (6 mg, 12 mg and 18 mg) within a single day, driven by the intensity of the patient-reported psychedelic experience are of interest.
The data gathered include the assessment of the treated patients against several scales including the Montgomery Åsberg Depression Rating Scale (MADRS) and the Brief Psychiatric Rating Scale (BPRS).
This trial was designed in two parts. Part A was an open-label, single-arm, single-dose Phase 1 trial with two dose levels (12 mg (n=4) and 18 mg (n=4)). […] The primary endpoint of Part B was to assess the effects on the severity of depression, as assessed by the proportion of patients in remission on day seven after dosing, defined as a MADRS total score of less than or equal to 10.

[1] = 12 mg n=4, 2 hours, baseline 16

## COc1ccc2[nH]cc(CCN(C)C)c2c1 [5-MeO-DMT]
12 mg n=4, 2 hours
  MADRS Concentration Difficulties improvement: 9 points
  MADRS Inability to Feel improvement: 7 points
  MADRS Inner Tension improvement: 11 points
  MADRS Lassitude improvement: 6 points
  MADRS Pessimistic Thoughts improvement: 8 points
  MADRS Pessimistic Thoughts percentage improvement: 50.00%
  MADRS Suicidal Thoughts improvement: 5 points
12 mg n=4, 2 hours, baseline 8
  MADRS Suicidal Thoughts aggregated score: 3
12 mg n=4, 2 hours, baseline 13
  MADRS Inner Tension aggregated score: 2
[1]
  MADRS Concentration Difficulties aggregated score: 7
  MADRS Inability to Feel aggregated score: 9
  MADRS Lassitude aggregated score: 10
  MADRS Pessimistic Thoughts aggregated score: 8
12 mg n=4, 3 hours
  BPRS Anxiety improvement: 14 points
  BPRS Anxiety percentage improvement: 56.00%
  BPRS Blunted Affect improvement: 3 points
  BPRS Emotional Withdrawal improvement: 2 points
  BPRS Guilt Feelings improvement: 9 points
  BPRS Guilt Feelings percentage improvement: 50.00%
  BPRS Tension improvement: 5 points
12 mg n=4, 3 hours, baseline 11
  BPRS Blunted Affect aggregated score: 8
12 mg n=4, 3 hours, baseline 13
  BPRS Emotional Withdrawal aggregated score: 11
12 mg n=4, 3 hours, baseline 14
  BPRS Tension aggregated score: 9
12 mg n=4, 3 hours, baseline 18
  BPRS Guilt Feelings aggregated score: 9
12 mg n=4, 3 hours, baseline 25
  BPRS Anxiety aggregated score: 11
Day 7
  Patients maintaining remission: 7/8
IDR n=8, 2 hours
  MADRS Concentration Difficulties improvement: 19 points
  MADRS Inability to Feel improvement: 24 points
  MADRS Inner Tension improvement: 15 points
  MADRS Lassitude improvement: 17 points
  MADRS Pessimistic Thoughts improvement: 21 points
  MADRS Pessimistic Thoughts percentage improvement: 75.00%
  MADRS Suicidal Thoughts improvement: 8 points
IDR n=8, 2 hours, baseline 11
  MADRS Suicidal Thoughts aggregated score: 3
IDR n=8, 2 hours, baseline 26
  MADRS Inner Tension aggregated score: 11
IDR n=8, 2 hours, baseline 27
  MADRS Lassitude aggregated score: 10
IDR n=8, 2 hours, baseline 28
  MADRS Pessimistic Thoughts aggregated score: 7
IDR n=8, 2 hours, baseline 30
  MADRS Concentration Difficulties aggregated score: 11
IDR n=8, 2 hours, baseline 36
  MADRS Inability to Feel aggregated score: 12
IDR n=8, 3 hours
  BPRS Anxiety improvement: 18 points
  BPRS Blunted Affect improvement: 4 points
  BPRS Emotional Withdrawal improvement: 5 points
  BPRS Guilt Feelings improvement: 20 points
  BPRS Tension improvement: 5 points
IDR n=8, 3 hours, baseline 13
  BPRS Emotional Withdrawal aggregated score: 8
IDR n=8, 3 hours, baseline 15
  BPRS Blunted Affect aggregated score: 11
IDR n=8, 3 hours, baseline 16
  BPRS Tension aggregated score: 11
IDR n=8, 3 hours, baseline 34
  BPRS Guilt Feelings aggregated score: 14
IDR n=8, 3 hours, baseline 37
  BPRS Anxiety aggregated score: 19
Part A and Part B
  Safety laboratory analyses, vital signs, psychiatric safety assessments, cognitive function: No clinically significant changes
12 mg
  Patients with at least one ADR: 3 of 4
18 mg
  Patients with at least one ADR: 3 of 4
Part B, IDR n=8, day seven
  Patients with MADRS remission: 87.5%
Part B, IDR, day seven
  Mean MADRS change from baseline, percent: 76%
Day 1
  Patients achieving remission: 8/8
Within 2 h after dosing
  Patients achieving remission: 5/8
